{
  "source": "the supplement of paper PMC10307832",
  "data": [
    {"compound": "Cc1nc(C(=O)NCC(=O)O)c(O)c2ccc(Oc3ccccc3)cc12 [FG-4592] + CC(=O)c1c(C)c2cnc(Nc3ccc(N4CCNCC4)cn3)nc2n(C2CCCC2)c1=O [Palbociclib] (partner 0.5 µM)", "assay": "relative viability (nuclei count vs DMSO), 5 days (fraction); higher = more cells survive", "conditions": "first compound 0.8 µM", "summary_of_the_method": "(§1)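 Nuclei were stained with Hoechst during a one-step fixation (final 0.05% Triton X-100, 1% formaldehyde, 1 ug/ml Hoechst) carried out 5 days after dosing, then counted on 4× images. The cells, lung cancer lines in 1536-well plates, had been dosed by pin tool the day after seeding with one drug alone or a fixed anchor-drug dose plus five library-drug doses (not always all listed) in √10 steps. Relative viability is the nuclei count in treated wells divided by that in vehicle wells, and each value is the median of duplicate plates.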", "values": [
      {"cell line": "H3255", "relative viability": 0.299},
      {"cell line": "COR-L23", "relative viability": 0.258},
      {"cell line": "COR-L 105", "relative viability": 0.324},
      {"cell line": "LOU-NH91", "relative viability": 0.54},
      {"cell line": "ChaGo-K-1", "relative viability": 1.01},
      {"cell line": "NCI-H2170", "relative viability": 0.345},
      {"cell line": "NCI-H2405", "relative viability": 0.48},
      {"cell line": "HOP-62", "relative viability": 0.365},
      {"cell line": "HCC-44", "relative viability": 0.91},
      {"cell line": "BEN", "relative viability": 0.463},
      {"cell line": "HARA", "relative viability": 0.261},
      {"cell line": "HCC-78", "relative viability": 0.465},
      {"cell line": "NCI-H322M", "relative viability": 0.444},
      {"cell line": "NCI-H2009", "relative viability": 0.228},
      {"cell line": "A-427", "relative viability": 0.562},
      {"cell line": "NCI-H441", "relative viability": 0.208},
      {"cell line": "NCI-H661", "relative viability": 0.373},
      {"cell line": "NCI-H1734", "relative viability": 0.35},
      {"cell line": "NCI-H460", "relative viability": 0.173},
      {"cell line": "NCI-H2347", "relative viability": 0.41},
      {"cell line": "SK-LU-1", "relative viability": 0.345},
      {"cell line": "NCI-H1395", "relative viability": 0.597},
      {"cell line": "201T", "relative viability": 0.341},
      {"cell line": "NCI-H1915", "relative viability": 0.496},
      {"cell line": "HCC-827", "relative viability": 0.402},
      {"cell line": "LXF-289", "relative viability": 0.615},
      {"cell line": "NCI-H23", "relative viability": 0.501},
      {"cell line": "NCI-H647", "relative viability": 0.366},
      {"cell line": "CAL-12T", "relative viability": 0.386}
    ]},
    {"compound": "Cc1nc(C(=O)NCC(=O)O)c(O)c2ccc(Oc3ccccc3)cc12 [FG-4592] + CC(=O)c1c(C)c2cnc(Nc3ccc(N4CCNCC4)cn3)nc2n(C2CCCC2)c1=O [Palbociclib] (partner 0.5 µM)", "assay": "relative viability (nuclei count vs DMSO), 5 days (fraction); higher = more cells survive", "conditions": "first compound 2.53 µM", "summary_of_the_method": "as §1", "values": [
      {"cell line": "NCI-H522", "relative viability": 1.1},
      {"cell line": "NCI-H727", "relative viability": 0.659},
      {"cell line": "NCI-H1650", "relative viability": 0.346},
      {"cell line": "NCI-H1993", "relative viability": 0.691},
      {"cell line": "SW 1573", "relative viability": 0.31},
      {"cell line": "NCI-H838", "relative viability": 0.218},
      {"cell line": "LCLC-103H", "relative viability": 0.467},
      {"cell line": "NCI-H520", "relative viability": 0.215},
      {"cell line": "NCI-H2126", "relative viability": 0.372},
      {"cell line": "EMC-BAC-2", "relative viability": 0.503},
      {"cell line": "NCI-H2085", "relative viability": 0.46},
      {"cell line": "HCC-366", "relative viability": 0.437},
      {"cell line": "NCI-H1666", "relative viability": 0.673},
      {"cell line": "LK-2", "relative viability": 0.679},
      {"cell line": "NCI-H2342", "relative viability": 0.538},
      {"cell line": "SK-MES-1", "relative viability": 0.32},
      {"cell line": "H3255", "relative viability": 0.317},
      {"cell line": "COR-L23", "relative viability": 0.274},
      {"cell line": "COR-L 105", "relative viability": 0.34},
      {"cell line": "LOU-NH91", "relative viability": 0.517},
      {"cell line": "ChaGo-K-1", "relative viability": 0.914},
      {"cell line": "NCI-H2170", "relative viability": 0.381},
      {"cell line": "NCI-H2405", "relative viability": 0.46},
      {"cell line": "HOP-62", "relative viability": 0.407},
      {"cell line": "HCC-44", "relative viability": 0.943},
      {"cell line": "SW 900", "relative viability": 0.568},
      {"cell line": "LU99A", "relative viability": 0.432},
      {"cell line": "BEN", "relative viability": 0.454},
      {"cell line": "HARA", "relative viability": 0.286},
      {"cell line": "NCI-H1648", "relative viability": 0.282},
      {"cell line": "HCC-78", "relative viability": 0.453},
      {"cell line": "NCI-H322M", "relative viability": 0.465},
      {"cell line": "LCLC-97TM1", "relative viability": 0.181},
      {"cell line": "NCI-H2009", "relative viability": 0.24},
      {"cell line": "A-427", "relative viability": 0.553},
      {"cell line": "NCI-H441", "relative viability": 0.226},
      {"cell line": "NCI-H661", "relative viability": 0.397},
      {"cell line": "NCI-H1734", "relative viability": 0.345},
      {"cell line": "NCI-H460", "relative viability": 0.155},
      {"cell line": "NCI-H2347", "relative viability": 0.454},
      {"cell line": "SK-LU-1", "relative viability": 0.378},
      {"cell line": "NCI-H1395", "relative viability": 0.688},
      {"cell line": "201T", "relative viability": 0.36},
      {"cell line": "NCI-H1915", "relative viability": 0.504},
      {"cell line": "HCC-827", "relative viability": 0.507},
      {"cell line": "LXF-289", "relative viability": 0.588},
      {"cell line": "NCI-H23", "relative viability": 0.547},
      {"cell line": "NCI-H647", "relative viability": 0.374},
      {"cell line": "CAL-12T", "relative viability": 0.336}
    ]},
    {"compound": "Cc1nc(C(=O)NCC(=O)O)c(O)c2ccc(Oc3ccccc3)cc12 [FG-4592] + CC(=O)c1c(C)c2cnc(Nc3ccc(N4CCNCC4)cn3)nc2n(C2CCCC2)c1=O [Palbociclib] (partner 0.5 µM)", "assay": "relative viability (nuclei count vs DMSO), 5 days (fraction); higher = more cells survive", "conditions": "first compound 8 µM", "summary_of_the_method": "as §1", "values": [
      {"cell line": "NCI-H522", "relative viability": 0.811},
      {"cell line": "NCI-H727", "relative viability": 0.626},
      {"cell line": "NCI-H1650", "relative viability": 0.332},
      {"cell line": "NCI-H1993", "relative viability": 0.563},
      {"cell line": "SW 1573", "relative viability": 0.238},
      {"cell line": "NCI-H838", "relative viability": 0.174},
      {"cell line": "LCLC-103H", "relative viability": 0.454},
      {"cell line": "NCI-H520", "relative viability": 0.162},
      {"cell line": "NCI-H2126", "relative viability": 0.334},
      {"cell line": "EMC-BAC-2", "relative viability": 0.47},
      {"cell line": "NCI-H2085", "relative viability": 0.469},
      {"cell line": "HCC-366", "relative viability": 0.291},
      {"cell line": "NCI-H1666", "relative viability": 0.689},
      {"cell line": "LK-2", "relative viability": 0.599},
      {"cell line": "NCI-H2087", "relative viability": 0.187},
      {"cell line": "NCI-H2342", "relative viability": 0.489},
      {"cell line": "SK-MES-1", "relative viability": 0.327},
      {"cell line": "H3255", "relative viability": 0.304},
      {"cell line": "COR-L23", "relative viability": 0.234},
      {"cell line": "COR-L 105", "relative viability": 0.418},
      {"cell line": "LOU-NH91", "relative viability": 0.544},
      {"cell line": "ChaGo-K-1", "relative viability": 0.958},
      {"cell line": "NCI-H2170", "relative viability": 0.282},
      {"cell line": "NCI-H2405", "relative viability": 0.442},
      {"cell line": "HOP-62", "relative viability": 0.37},
      {"cell line": "HCC-44", "relative viability": 0.97},
      {"cell line": "SW 900", "relative viability": 0.5},
      {"cell line": "LU99A", "relative viability": 0.382},
      {"cell line": "BEN", "relative viability": 0.475},
      {"cell line": "HARA", "relative viability": 0.25},
      {"cell line": "NCI-H1648", "relative viability": 0.262},
      {"cell line": "HCC-78", "relative viability": 0.438},
      {"cell line": "NCI-H322M", "relative viability": 0.483},
      {"cell line": "LCLC-97TM1", "relative viability": 0.191},
      {"cell line": "NCI-H2009", "relative viability": 0.0739},
      {"cell line": "A-427", "relative viability": 0.591},
      {"cell line": "NCI-H441", "relative viability": 0.186},
      {"cell line": "NCI-H661", "relative viability": 0.396},
      {"cell line": "NCI-H1734", "relative viability": 0.286},
      {"cell line": "NCI-H460", "relative viability": 0.119},
      {"cell line": "NCI-H2347", "relative viability": 0.407},
      {"cell line": "SK-LU-1", "relative viability": 0.372},
      {"cell line": "NCI-H1395", "relative viability": 0.485},
      {"cell line": "201T", "relative viability": 0.341},
      {"cell line": "NCI-H1915", "relative viability": 0.513},
      {"cell line": "HCC-827", "relative viability": 0.467},
      {"cell line": "LXF-289", "relative viability": 0.603},
      {"cell line": "NCI-H23", "relative viability": 0.453},
      {"cell line": "NCI-H647", "relative viability": 0.175},
      {"cell line": "CAL-12T", "relative viability": 0.442}
    ]}
  ]
}
